Test results: patent US7605153B2, “Use of paullone derivatives for the production of medicaments for the treatment of mucoviscidosis and diseases related to protein addressing errors in cells” (Centre National de la Recherche Scientifique - CNRS, priority 2005, dated 2009)
Values belong to the molecule of their own block, whether it stands above or below them.

Assays:
[1] = molecular target: T1, delF508-CFTR (Homo sapiens, UniProt P13569, DEL508-508); assay: iodide efflux, delF508 addressing in CF15 cells; assay type: cell-based; conditions: for effect of known CFTR inhibitors on delF508 activity after treatment with kenpaullone: CF15 cells treated with kenpaullone, iodide transport; for delF508-CFTR activity (iodide efflux) normalised to MPB-91 standard treatment: CF15 cells treated 2 hrs at 37° C., stimulation 10 μM Forskoline+30 μM Genisteine, 250 μM MPB-91 for 2 hrs = 100%, alsterpaullone 100 μM
T1 construct: CF15 human lung epithelial cells homozygous for the delF508 deletion; endogenous in cells; host or cells: CF15 human nasal/lung epithelial cells, homozygous delF508
T1 sequence (P13569 with tags, fused parts or gaps DEL508-508): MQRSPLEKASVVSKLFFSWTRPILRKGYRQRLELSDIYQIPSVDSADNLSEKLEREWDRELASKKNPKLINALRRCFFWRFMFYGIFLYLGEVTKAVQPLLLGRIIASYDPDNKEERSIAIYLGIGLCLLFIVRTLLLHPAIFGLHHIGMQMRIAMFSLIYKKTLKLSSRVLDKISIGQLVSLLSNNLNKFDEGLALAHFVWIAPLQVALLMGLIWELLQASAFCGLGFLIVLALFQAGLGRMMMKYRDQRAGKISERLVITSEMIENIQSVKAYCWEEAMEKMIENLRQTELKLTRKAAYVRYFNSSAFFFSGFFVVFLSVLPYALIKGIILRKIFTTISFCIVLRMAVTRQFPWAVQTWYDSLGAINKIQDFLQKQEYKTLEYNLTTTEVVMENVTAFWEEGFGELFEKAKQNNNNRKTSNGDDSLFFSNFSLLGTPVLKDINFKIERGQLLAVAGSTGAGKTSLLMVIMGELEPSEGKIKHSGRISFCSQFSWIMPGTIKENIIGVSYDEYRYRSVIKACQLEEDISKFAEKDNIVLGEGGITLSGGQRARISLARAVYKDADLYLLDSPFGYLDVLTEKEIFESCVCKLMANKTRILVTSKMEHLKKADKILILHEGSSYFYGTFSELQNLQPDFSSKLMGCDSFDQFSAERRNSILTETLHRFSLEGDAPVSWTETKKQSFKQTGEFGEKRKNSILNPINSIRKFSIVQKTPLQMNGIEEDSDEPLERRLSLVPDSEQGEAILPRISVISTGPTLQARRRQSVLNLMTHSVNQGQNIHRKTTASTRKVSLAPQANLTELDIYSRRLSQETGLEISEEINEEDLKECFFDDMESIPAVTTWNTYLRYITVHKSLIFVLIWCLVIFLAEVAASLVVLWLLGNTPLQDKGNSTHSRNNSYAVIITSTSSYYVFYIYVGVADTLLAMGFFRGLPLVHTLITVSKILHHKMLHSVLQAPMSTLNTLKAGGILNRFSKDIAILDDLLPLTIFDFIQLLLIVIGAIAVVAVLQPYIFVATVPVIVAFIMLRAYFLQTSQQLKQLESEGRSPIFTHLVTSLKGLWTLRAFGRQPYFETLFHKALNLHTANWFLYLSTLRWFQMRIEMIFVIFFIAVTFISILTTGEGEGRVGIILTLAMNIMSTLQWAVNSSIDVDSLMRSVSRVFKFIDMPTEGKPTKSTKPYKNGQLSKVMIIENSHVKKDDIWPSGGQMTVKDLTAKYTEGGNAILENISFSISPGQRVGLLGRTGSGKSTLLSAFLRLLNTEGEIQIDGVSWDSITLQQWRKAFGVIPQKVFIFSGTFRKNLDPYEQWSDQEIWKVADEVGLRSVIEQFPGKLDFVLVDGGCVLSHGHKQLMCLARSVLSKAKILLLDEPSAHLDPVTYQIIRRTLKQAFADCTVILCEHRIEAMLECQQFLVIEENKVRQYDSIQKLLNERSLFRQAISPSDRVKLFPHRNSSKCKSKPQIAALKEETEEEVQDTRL
Experimental: CF15 cells: CF15 cells are human nasal epithelial cells expressing the AF508-CFTR gene.
The cells are incubated in an appropriate medium in 24-well plates. […] The iodide equilibrates on either side of the cell membrane. The following steps are performed using a robot (MultiPROBE, Packard): the loading medium is rinsed with efflux medium in order to eliminate extracellular radioactivity. The supernatant is collected every minute into haemolysis tubes and the medium is replaced by an equivalent volume of medium (500 μl). No drug is added to the samples taken in the first three minutes in order to obtain a stable baseline characterising the passive exit of I ions. The 7 samples that follow are obtained in the presence of the molecule to be tested. At the end of the experiment, the cells are lysed by adding 500 μl of 0.1 N NaOH/0.1% SDS (30 min), which allows determining the level of radioactivity remaining inside the cell. The radioactivity present in the haemolysis tubes is measured as counts per minute (cpm) using a gamma counter (Cobra II, Packard). […] This iodide flux is represented by a graph. In order to quantify the iodide efflux due to administration of the tested molecule, the relative flux is calculated as follows in order to ignore the basal flux: Relative velocity (min^−1)=Rpeak−Rbasal. […] The results are presented in the form of a mean+/−SEM. Student's statistical test is used to compare the effect of the various drugs with the controls (the corresponding P<0.01 values are considered to be statistically significant).
The study of delF508-CFTR protein addressing is performed in the laboratory by using a combination of pharmacological, cellular imagery, biochemical and electrophysiological tests on CF15 human lung epithelial cells homozygous for the delF508 deletion. For each experiment, the addition of a cocktail (10 μM Forskoline+30 μM Genisteine) allows activation of the CFTR when the latter is localised at the membrane. This allows an iodide efflux to be observed if delF508 addressing has been restored.

[2] = test system: GSK-3; conditions: cited from earlier work
[3] = molecular target: T1, delF508-CFTR; assay: immunolabelling, cellular localisation of delF508-CFTR in CF15 cells; assay type: cell-based; conditions: 100 μM
Experimental: Immunolabelling allows visualising the cellular localisation of the CFTR protein by an anti-CFTR primary antibody (Ab), and a secondary Cy3-labelled fluorescent antibody directed against the primary antibody.
The cells are first seeded on cover slips in an appropriate culture medium. The cells are then washed 3 times with TBS (157 mM NaCl, […] Tris base, pH 7.4) of 5 min. each time and then fixed by adding 3% TBS-paraformaldehyde for 20 min. After 3 washes with TBS (5 min), the cells are incubated with 0.1% TBS-triton (10 min) to make holes in the cell membrane, and then washed 3 times with TBS before being exposed to 0.5% TBS-BSA-0.05% saponin for 1 hr. The cells are then incubated with the primary anti-CFTR C terminal antibody (2 μg/ml) for 1 hr. The cells are washed 3 times (5 min. each) with TBS-BSA-saponin before incubating with the GAM-cy3 secondary antibody ( 1/400) for 1 hr. After 2 TBS washes (5 min. each), the nuclei are labelled by incubating with Topro3 ( 1/1,000) for 5 min. Finally, the cover slips can be mounted on a glass slide after 3 final TBS washes of 5 min. each. The slides are observed with a confocal microscope (Bio-Rad) using laser excitation at appropriate wave-lengths. In order to differentiate Cy3 from Topro3 labelling, the colour of the Topor3 fluorescence has been changed to blue (colour of the nuclei). […]

[4] = in vivo; cited from earlier work
[5] = molecular target: T2, wild-type CFTR (Homo sapiens, UniProt P13569); assay: iodide efflux, CFTR addressing in Calu-3 cells after 2 hrs treatment; assay type: cell-based; conditions: Calu-3 cells treated for 2 hrs, 100 μM
T2 construct: Calu-3 cells are human lung epithelial cells expressing the wild-type CFTR gene; endogenous in cells; host or cells: Calu-3 human lung epithelial cells
T2 sequence (P13569 whole entry): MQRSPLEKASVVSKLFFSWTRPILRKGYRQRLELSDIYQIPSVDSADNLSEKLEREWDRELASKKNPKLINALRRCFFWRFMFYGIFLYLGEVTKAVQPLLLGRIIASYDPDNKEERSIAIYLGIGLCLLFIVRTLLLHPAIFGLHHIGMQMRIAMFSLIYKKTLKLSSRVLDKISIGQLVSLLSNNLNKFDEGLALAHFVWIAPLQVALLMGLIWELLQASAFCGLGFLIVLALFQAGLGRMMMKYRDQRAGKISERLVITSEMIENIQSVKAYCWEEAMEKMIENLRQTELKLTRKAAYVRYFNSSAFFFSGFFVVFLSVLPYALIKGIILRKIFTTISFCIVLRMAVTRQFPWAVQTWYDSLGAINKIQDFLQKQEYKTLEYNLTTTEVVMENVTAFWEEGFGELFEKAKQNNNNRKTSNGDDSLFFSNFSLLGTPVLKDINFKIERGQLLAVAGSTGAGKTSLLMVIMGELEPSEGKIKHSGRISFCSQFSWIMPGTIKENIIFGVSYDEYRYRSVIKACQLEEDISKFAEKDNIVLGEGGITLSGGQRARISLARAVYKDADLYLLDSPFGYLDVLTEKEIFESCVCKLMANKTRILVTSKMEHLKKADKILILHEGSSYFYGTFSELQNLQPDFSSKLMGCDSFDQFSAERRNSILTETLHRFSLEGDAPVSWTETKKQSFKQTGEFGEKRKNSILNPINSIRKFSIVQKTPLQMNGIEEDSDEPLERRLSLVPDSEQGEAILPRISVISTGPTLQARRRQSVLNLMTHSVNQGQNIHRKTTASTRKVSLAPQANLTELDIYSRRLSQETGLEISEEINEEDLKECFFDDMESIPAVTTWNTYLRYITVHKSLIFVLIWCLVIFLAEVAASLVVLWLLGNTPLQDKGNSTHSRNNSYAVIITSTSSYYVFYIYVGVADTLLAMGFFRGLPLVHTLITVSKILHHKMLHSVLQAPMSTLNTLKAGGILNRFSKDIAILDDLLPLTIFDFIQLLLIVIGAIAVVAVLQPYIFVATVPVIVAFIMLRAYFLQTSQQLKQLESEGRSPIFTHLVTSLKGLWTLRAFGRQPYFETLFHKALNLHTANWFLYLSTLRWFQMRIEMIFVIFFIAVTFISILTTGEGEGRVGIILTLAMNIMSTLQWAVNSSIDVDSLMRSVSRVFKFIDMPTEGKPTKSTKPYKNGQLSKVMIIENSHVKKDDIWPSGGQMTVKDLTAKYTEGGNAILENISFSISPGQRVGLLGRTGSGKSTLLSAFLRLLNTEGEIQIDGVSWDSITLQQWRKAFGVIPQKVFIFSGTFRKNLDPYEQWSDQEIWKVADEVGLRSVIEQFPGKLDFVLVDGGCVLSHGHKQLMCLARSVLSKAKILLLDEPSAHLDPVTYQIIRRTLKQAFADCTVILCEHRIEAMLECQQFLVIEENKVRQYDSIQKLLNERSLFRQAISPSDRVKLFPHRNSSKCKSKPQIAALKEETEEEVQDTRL
Experimental: (§1) Calu-3 cells: Calu-3 cells are human lung epithelial cells expressing the wild-type CFTR gene.
(§2) Measurements of chloride ion transport in the cells were performed using the radioactive iodide efflux technique (Becq et al., Journal of Biological Chemistry 274, 27415-27425 (1999); Dormer et al., Journal of Cell Science 114, 4073-4081 (2001). The ^125I tracer is incorporated into the intracellular milieu. Then, the quantity of radiotracer coming out of the cell is then measured after adding various pharmacological agents. Iodide is used as a tracer of chloride ion transport. ^125I has the advantage of being short-lived compared to other markers such as ^35Cl (respective half-lives: […] and 300,000 years).
(§3) The cells are incubated in an appropriate medium in 24-well plates. The cells are rinsed twice with efflux medium (136.6 mM NaCl, 5.4 mM KCl, 0.3 mM KH2PO4, 0.3 mM NaH2PO4, 4.2 mM NaHCO3, 1.3 mM CaCl2, 0.5 mM MgCl2, 0.4 mM MgSO4, 10 mM HEPES, 5.6 mM D-glucose) in order to eliminate dead cells, which release radioactivity in an anarchic fashion. […] The following steps are performed using a robot (MultiPROBE, Packard): the loading medium is rinsed with efflux medium in order to eliminate extracellular radioactivity. […] The radioactivity present in the haemolysis tubes is measured as counts per minute (cpm) using a gamma counter (Cobra II, Packard). […]

[6] = test system: CHO-WT cells; assay: MTT cytotoxicity test; assay type: cell-based, Chinese Hamster; conditions: CHO-WT cells incubated 2 hrs, different concentrations
Experimental: CHO-WT cells: CHO (Chinese Hamster Ovary) cells are fibroblasts transfected with the wild-type CFTR gene (CFTR-WT). These cells will therefore overexpress the CFTR protein.
The MTT cytotoxicity test is a […] test based on the capacity of mitochondrial dehydrogenases to metabolise MTT (a yellow tetrazolium salt) into formazan (purple). The absorbance is proportional to the concentration of converted dye and can then be measured by spectrophotometry. The cells are incubated in 96-well microplates in the presence of the agent to be tested for 2 hours. Three controls are performed: 100% live cells: cells without any agent; 0% live cells: cells left under normal atmosphere; blank: medium without cells. The cells are rinsed with RPMI medium without phenol red in order for the colour of the medium not to interfere with absorbance measurements. They are then incubated for 4 hours with 100 μl RPMI solution supplemented with MTT (0.5 mg/ml). The medium is eliminated, 100 μl DMSO is added which permit to dissolve the converted dye (formazan). The absorbance is measured by spectrophotometry at 570 nm (purple); 630 nm (background noise). In order to ignore the background noise, the following calculation is performed: DOreelle=DO570nm−DO630nm. The results are then normalised with respect to the controls (100% and 0% live cells) and presented in the form of a mean+/−SEM. […]

[7] = molecular target: T2, wild-type CFTR; assay: iodide efflux, CFTR activity in Calu-3 cells (test as activator); assay type: cell-based; conditions: n=8, controls forskoline 5 μM, MPB-91 250 μM
Experimental: as §1, §2, §3

- effect of known CFTR inhibitors on delF508 activity after treatment with kenpaullone [1]: blocked
Compound: O=C(O)c1ccccc1Nc1ccccc1 [DPC]

- delF508-CFTR activity (iodide efflux) normalised to MPB-91 standard treatment [1]: no effect
Compound: O=C1Cc2c([nH]c3ccc([N+](=O)[O-])cc23)-c2ccccc2N1 [alsterpaullone]

The next lines start with the molecule.

Compound: O=S(=O)(O)c1cc(N=C=S)ccc1C=Cc1ccc(N=C=S)cc1S(=O)(=O)O [DIDS]
- effect of known CFTR inhibitors on delF508 activity after treatment with kenpaullone [1]: insensitive

Compound: COc1ccc(Cl)cc1C(=O)NCCc1ccc(S(=O)(=O)NC(=O)NC2CCCCC2)cc1 [glibenclamide]
- effect of known CFTR inhibitors on delF508 activity after treatment with kenpaullone [1]: blocked

Compound: O=C1Cc2c([nH]c3ccc(Br)cc23)-c2ccccc2N1 [kenpaullone]
- selectivity for GSK-3 inhibition [2]: highly selective
- localisation of delF508 protein [3]: redirect the delF508 protein towards the membrane
- toxicity in animals [4]: only very slight toxicity
- CFTR activity after treatment (wild-type CFTR addressing) [5]: not significantly different from the controls
- cell viability (MTT) [6]: viable at all concentrations
- activation of wild-type CFTR or other anionic transporter [7]: not found to be an activator
- EC50 [1]: 22 ± 1.7 µM
- delF508-CFTR activity (iodide efflux) normalised to MPB-91 standard treatment [1]: higher than that obtained with MPB-91
